Results taken from the supplement of paper PMC11208160.

test: recombinant barcode read abundance after kanamycin selection (control-corrected) (log10(CPM+1)); higher = more efficient recombination; sequences stand for … in AGTGCAGAGAAAATCGGCCAGTTTTCTCTGCCTGCAGTCCGCATGCCGT…AGATTTATGCAGCGGACTGCCTTTCTCCCAAAGTGATAAACCGGACAGTATCATGGACCGGTTTTCCCGGTAATCCGTATTTGCAAGGTTGGTTTCACT; site = the 11-nt target
Method in brief: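 Reported as log10(CPM+1), each value stands for recombination efficiency. That efficiency is the averaged, control-corrected counts per million of barcodes found at recombinant junctions. Cells from a pooled E. coli library pairing targets with IS621 bridge RNA target-binding loops were plated twice on chloramphenicol/ampicillin LB agar (control) and twice on chloramphenicol/ampicillin/kanamycin with 0.1 mM IPTG.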
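Note: IS621 recombinase and bridge RNA in Escherichia coli cells.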

Row | Sequence | recombinant barcode read abundance (log10)
1 | CTCTCCTCTTGGGTTCTAACCTGTTGCCT (site CTCTCCGCTAG) | 0.502
2 | CTCTCCTCTTGGGTTCTAACCTGTTGCCT (site CTCTCCTCTAG) | 1.28
3 | CTCTCGTCTTGGGTTCTAACCTGTTGCTT (site CTCTCGTCTAA) | 0.2
4 | CTCTCGTCTTGGGTTCTAACCTGTTGCTT (site CTCTCGTCTAC) | 0.517
5 | CTCTCGTCTTGGGTTCTAACCTGTTGCTT (site CTCTCGTCTAG) | 0.107
6 | CTCTCGTCTTGGGTTCTAACCTGTTGCTT (site CTCTCGTCTAT) | 0.091
7 | CTCTGTCCTTGGGTTCTAACCTGTTGCCA (site CTCTGTCCTTA) | 0.0433
8 | CTCTGTCCTTGGGTTCTAACCTGTTGCCA (site CTCTGTCCTTG) | 0.545
9 | CTCTTAACTTGGGTTCTAACCTGTTGCGG (site AAGCATGCTTA) | 0.113
10 | CTCTTAACTTGGGTTCTAACCTGTTGCGG (site CTCTTAACTCC) | 0.536
11 | CTCTTAGCTTGGGTTCTAACCTGTTGCAA (site CTCTTAACTTA) | 0.0112
12 | CTCTTAGCTTGGGTTCTAACCTGTTGCAA (site CTCTTAGCTTT) | 0.0457
13 | CTCTTCACTTGGGTTCTAACCTGTTGCCG (site CTCTTCACTCG) | 0.998
14 | CTCTTCACTTGGGTTCTAACCTGTTGCCG (site CTCTTCGCTAG) | 0.0289
15 | CTGAGTTCTTGGGTTCTAACCTGTTGCCA (site CTGAGTCCTTG) | 0.269
16 | CTGAGTTCTTGGGTTCTAACCTGTTGCCA (site CTGAGTTCTTG) | 0.0274
17 | CTGATCCCTTGGGTTCTAACCTGTTGCGG (site CTGATCCCTCC) | 1.05
18 | CTGATCCCTTGGGTTCTAACCTGTTGCGG (site CTGCTCCCTCC) | 0
19 | CTGATCCCTTGGGTTCTAACCTGTTGCGG (site CTGGTCCCTCC) | 0.136
20 | CTGATCCCTTGGGTTCTAACCTGTTGCGG (site CTGTTCCCTCC) | 0.0812
21 | CTGATTACTTGGGTTCTAACCTGTTGCCT (site CTGATAACTAG) | 0.0337
22 | CTGATTACTTGGGTTCTAACCTGTTGCCT (site CTGATCACTAG) | 0.0584

Row | Sequence | recombinant barcode read abundance (log10)
23 | CTGATTACTTGGGTTCTAACCTGTTGCCT (site CTGATGACTAG) | 0.0346
24 | CTGATTACTTGGGTTCTAACCTGTTGCCT (site CTGATTACTAG) | 0.21
25 | CTGCAAGCTTGGGTTCTAACCTGTTGCCT (site CTACAAGCTAG) | 1.29
26 | CTGCAAGCTTGGGTTCTAACCTGTTGCCT (site CTCCAAGCTAG) | 0.218
27 | CTGCAAGCTTGGGTTCTAACCTGTTGCCT (site CTGCAAGCTAG) | 0.995
28 | CTGCAAGCTTGGGTTCTAACCTGTTGCCT (site CTTCAAGCTAG) | 0.854
29 | CTGGACCCTTGGGTTCTAACCTGTTGCCG (site CTGGACCCTCG) | 1.91
30 | CTGGACCCTTGGGTTCTAACCTGTTGCCG (site GATTCGACTAC) | 0.0386
31 | CTGGCAGCTTGGGTTCTAACCTGTTGCCT (site ACAAACCCTTA) | 0.241
32 | CTGGCAGCTTGGGTTCTAACCTGTTGCCT (site CTGGCAGCTAG) | 0.445
33 | CTGGCGCCTTGGGTTCTAACCTGTTGCAT (site CTGGCGCCTAT) | 0.908
34 | CTGGCGCCTTGGGTTCTAACCTGTTGCAT (site TCTCGAGCTTC) | 0.0909
35 | CTGGCTCCTTGGGTTCTAACCTGTTGCTT (site CTGGCTCCTAA) | 0.227
36 | CTGGCTCCTTGGGTTCTAACCTGTTGCTT (site CTGGTTCCTAG) | 0.0218
37 | CTGGGGTCTTGGGTTCTAACCTGTTGCTT (site CTGGGGTCTAA) | 2.43
38 | CTGGGGTCTTGGGTTCTAACCTGTTGCTT (site GACTAAGCTCC) | 0.105
39 | CTGGTGCCTTGGGTTCTAACCTGTTGCCT (site CAGGTGCCTAG) | 0.808
40 | CTGGTGCCTTGGGTTCTAACCTGTTGCCT (site CCGGTGCCTAG) | 0.116
41 | CTGGTGCCTTGGGTTCTAACCTGTTGCCT (site CGGGTGCCTAG) | 0.248
42 | CTGGTGCCTTGGGTTCTAACCTGTTGCCT (site CTGGTGCCTAG) | 1.46
43 | CTGTAGCCTTGGGTTCTAACCTGTTGCTG (site CTGTAGCCTCA) | 0.578
44 | CTGTAGCCTTGGGTTCTAACCTGTTGCTG (site CTGTAGGCTTA) | 0.0376

Row | Sequence | recombinant barcode read abundance (log10)
45 | CTGTAGGCTTGGGTTCTAACCTGTTGCTA (site CTGTAGCCTCA) | 0.136
46 | CTGTAGGCTTGGGTTCTAACCTGTTGCTA (site CTGTAGGCTTA) | 0.716
47 | CTGTCGACTTGGGTTCTAACCTGTTGCCT (site CTATCCACTAG) | 0.0154
48 | CTGTCGACTTGGGTTCTAACCTGTTGCCT (site CTGTCGACTAG) | 0.286
49 | CTGTCTACTTGGGTTCTAACCTGTTGCCT (site CAGTCTACTAG) | 0.0294
50 | CTGTCTACTTGGGTTCTAACCTGTTGCCT (site CCGTCTACTAG) | 0.197
51 | CTGTCTACTTGGGTTCTAACCTGTTGCCT (site CGGTCTACTAG) | 0.134
52 | CTGTCTACTTGGGTTCTAACCTGTTGCCT (site CTGTCTACTAG) | 0.0179
53 | CTTACTACTTGGGTTCTAACCTGTTGCCT (site ATCACTACTAG) | 0.105
54 | CTTACTACTTGGGTTCTAACCTGTTGCCT (site CTTACTACTAG) | 0.126
55 | CTTAGGACTTGGGTTCTAACCTGTTGCCT (site CTTAGGACTAG) | 0.205
56 | CTTAGGACTTGGGTTCTAACCTGTTGCCT (site CTTAGGACTCG) | 0.0406
57 | CTTAGGACTTGGGTTCTAACCTGTTGCCT (site CTTAGGACTGG) | 0.136
58 | CTTAGGACTTGGGTTCTAACCTGTTGCCT (site CTTAGGACTTG) | 0.0473
59 | CTTCAACCTTGGGTTCTAACCTGTTGCCT (site CTTCAACCTAG) | 1.75
60 | CTTCAACCTTGGGTTCTAACCTGTTGCCT (site CTTCACCCTAG) | 0.215
61 | CTTCAACCTTGGGTTCTAACCTGTTGCCT (site CTTCAGCCTAG) | 0.0746
62 | CTTCAACCTTGGGTTCTAACCTGTTGCCT (site CTTCATCCTAG) | 0.139
63 | CTTCACACTTGGGTTCTAACCTGTTGCAT (site CTTCACACTAT) | 1.7
64 | CTTCACACTTGGGTTCTAACCTGTTGCAT (site CTTCACGCTAG) | 0.316
65 | CTTCAGACTTGGGTTCTAACCTGTTGCTA (site CCTCAGACTTC) | 0.0983
66 | CTTCAGACTTGGGTTCTAACCTGTTGCTA (site CTTCAGACTTA) | 1.43

Row | Sequence | recombinant barcode read abundance (log10)
67 | CTTCATTCTTGGGTTCTAACCTGTTGCCT (site CTTCATTCTAG) | 0.102
68 | CTTCATTCTTGGGTTCTAACCTGTTGCCT (site TGCTGGGCTCA) | 0.0303
69 | CTTCGAGCTTGGGTTCTAACCTGTTGCGG (site CTTCGAGCTCA) | 0.0538
70 | CTTCGAGCTTGGGTTCTAACCTGTTGCGG (site CTTCGAGCTCC) | 0.98
71 | CTTCGAGCTTGGGTTCTAACCTGTTGCGG (site CTTCGAGCTCG) | 0.027
72 | CTTCGAGCTTGGGTTCTAACCTGTTGCGG (site CTTCGAGCTCT) | 0.658
73 | CTTCGTACTTGGGTTCTAACCTGTTGCCA (site CTCCGTACTCG) | 0.126
74 | CTTCGTACTTGGGTTCTAACCTGTTGCCA (site CTTCGTACTTG) | 0.213
75 | CTTCGTCCTTGGGTTCTAACCTGTTGCCT (site CTTCGTCCTAA) | 0.132
76 | CTTCGTCCTTGGGTTCTAACCTGTTGCCT (site CTTCGTCCTAC) | 0.0309
77 | CTTCGTCCTTGGGTTCTAACCTGTTGCCT (site CTTCGTCCTAG) | 0.804
78 | CTTCGTCCTTGGGTTCTAACCTGTTGCCT (site CTTCGTCCTAT) | 0.0799
79 | CTTCGTCCTTGGGTTCTAACCTGTTGCTT (site CTTCGTCCTAA) | 0.206
80 | CTTCGTCCTTGGGTTCTAACCTGTTGCTT (site CTTCGTCCTAC) | 0.68
81 | CTTCGTCCTTGGGTTCTAACCTGTTGCTT (site CTTCGTCCTAG) | 0.0453
82 | CTTCGTCCTTGGGTTCTAACCTGTTGCTT (site CTTCGTCCTAT) | 0.541
83 | CTTGACACTTGGGTTCTAACCTGTTGCCT (site CTAGACACTAG) | 1.2
84 | CTTGACACTTGGGTTCTAACCTGTTGCCT (site CTCGACACTAG) | 0.401
85 | CTTGACACTTGGGTTCTAACCTGTTGCCT (site CTGGACACTAG) | 0.236
86 | CTTGACACTTGGGTTCTAACCTGTTGCCT (site CTTGACACTAG) | 2.07
